# Source: US12371668B2, “Methods for tissue generation” (priority 2018, dated 2025)
# “Also recorded” adds a separate entry of the source.
# Tests used:
# [1] = tested on: ventricular tissues derived from BJ1D iPSC-CM; experiment: Intracellular action potential recordings in ventricular Biowires; assay type: cell-based, human; details: for responses on action potentials: ventricular Biowires, FIGS. 12E-12N
# Procedure: Tissues were perfused with 35-37° C. […] They were paced at twice the ET. The action potential was recorded with high impedance microelectrodes (60-90 MΩ) filled with 3M KCl, connected to an Axopatch 200B amplifier (Axon Instruments). Recordings were performed in current clamp mode at 2 kHz and signals were analyzed using the Clampfit 10 Data Analysis Module of the pCLAMP™ 10 Electrophysiology Data Acquisition & Analysis Software (Axon Instruments). The movement of the tissue was minimized by perfusing with 10 μM blebbistatin (Toronto Research Chemicals) for 20 min. The effect of various compounds on the action potential was assessed by preparing an appropriate dilution of the compound in Krebs's Solution or DMEM.
# [2] = tested on: ventricular Biowires created from BJ1D iPSCs and HES3 ESCs; experiment: Dynamic force recordings of ventricular Biowires under stimulation; assay type: cell-based, human; details: FIG. 2G
# Procedure: Blue channel image sequences were analyzed using a custom MatLab code that traced the maximum deflection of the POMaC wire. Average tissue width (diameter) and width of the tissue on the polymer wire (Tw) were measured from still frames of the 4× bright field video of the tissue in the relaxed position (FIGS. 8C-8D). Total (at peak contraction) and passive (at rest) POMaC wire deflections were converted to force measurements (μN) using the force calibration curves described in the previous section. The final readouts for the total and passive tension of tissue were then interpolated according to the Tw and custom tip sizes. The active force was calculated as the difference between the total and passive tension (FIG. 2C). The custom MatLab code was used to calculate the passive tension, active force, contraction and relaxation duration, and upstroke and relaxation velocity. To investigate the contractile effects of various compounds on the tissues, a custom testing chamber was fabricated in a 6-well plate modified with an extraction/injection port connected to a 5 mL syringe, a pair of carbon electrodes (set 1 cm apart) with platinum wire lead attachments and a custom 3D-printed holder for a polystyrene chip with a single microwell. Prior to testing, the tissue was transferred to the custom testing chamber and placed in the environmental chamber on the microscope stage (37° C., 5% CO2), where it was allowed to equilibrate for 30 min in the presence of electrical field stimulation (1 Hz, at ET). A bright field video of the tissue was taken before testing to obtain all the necessary measurements for the force calculation. For testing, the voltage was increased to 10% above the ET, and videos were taken of one polymer wire (10× objective). Prior to the test compound injection, media were extracted and injected through the port twice at 10 min intervals to pre-condition the tissue to the testing process. Compounds were diluted in media at concentrations 1000-fold higher than the desired final concentration. For compound testing, ⅓^rd of the media was extracted from the chamber, the compound was added to the extracted media and then injected back into the testing chamber. After 10-15 min, videos in the blue channel were recorded. The procedure was repeated for sequential drug dosages. The videos were analyzed using the custom MatLab software, as indicated for the weekly FFR assessments.
# [3] = tested on: atrial tissues derived from Hes3 hESC-CM; experiment: Intracellular action potential recordings in atrial Biowires; assay type: cell-based, human
# Procedure: Tissues were perfused with 35-37° C. Kreb's Solution (118 mM NaCl, 4.2 mM KCl, 1.2 mM KH2PO4, 1.2 mM MgSO4, 1.8 mM CaCl2, 23 mM NaHCO3, 2 mM Na-pyruvate and 20 mM glucose, equilibrated with 95% 02 and 5% CO2, pH 7.4) or DMEM medium. They were paced at twice the ET. The action potential was recorded with high impedance microelectrodes (60-90 MΩ) filled with 3M KCl, connected to an Axopatch 200B amplifier (Axon Instruments). Recordings were performed in current clamp mode at 2 kHz and signals were analyzed using the Clampfit 10 Data Analysis Module of the pCLAMP™ 10 Electrophysiology Data Acquisition & Analysis Software (Axon Instruments). The movement of the tissue was minimized by perfusing with 10 μM blebbistatin (Toronto Research Chemicals) for 20 min. The effect of various compounds on the action potential was assessed by preparing an appropriate dilution of the compound in Krebs's Solution or DMEM.
# [4] = Long-term absorption test, Biowire chips; assay type: physicochemical
# Procedure: (§1) For the long-term absorption test, polystyrene strips containing microwells and POMaC wires, with and without the adhesive, were cut into chips (9 mm×9 mm×1 mm) containing a single microwell. Chips of the same geometry were also made using PDMS. The polystyrene and PDMS chips were incubated in 1 mL Rhodamine B (1 μM; Sigma-Aldrich) in a 24 well-plate at 37° C. for up to 1 wk. Tissue culture treated 24 well-plates were incubated with the dye in the absence of any chips as a control. At 6 h, 24 h, 48 h, and 1 wk, 100 μL of the dye solution was transferred to a 96-well plate and the fluorescence was read using a SpectraMax i3 plate reader (Molecular Devices; λex=540 nm, λem=625 nm), (n=3). Additionally, fluorescent images of the chips were taken in the absence of treatment, after 1 wk of dye incubation, and after 2 h of washing following 1 wk of dye incubation.
# [5] = Long-term absorption test, PDMS chips; assay type: physicochemical; details: 1 wk incubation then washout for 2 hours
# Procedure: as §1
# [6] = tested on: atrial end of heteropolar atrio-ventricular Biowires (Hes3 hESC); experiment: Calcium transients in atrioventricular Biowires, atrial end; assay type: cell-based, human
# Procedure: To generate atrioventricular tissues, dissociated atrial cardiac cells and cardiac fibroblasts were mixed in a 10:1.5 cell number ratio. Dissociated ventricular cells and cardiac fibroblasts were mixed in a 10:1.5 cell number ratio. The mixed cells were pelleted and resuspended at a concentration of 5.75×10^7 cells/mL in collagen hydrogel. When seeding, cell-hydrogel mixture containing atrial CMs (1 μL) were seeded on one side of the Biowire II well first, followed by mixture containing ventricular CMs (1 μL) seeded on the other side. After seeding, tissues were cultured for 7 days to allow for remodeling and compaction around the POMaC wires. […]
# (§2) To investigate the relative changes of intracellular calcium concentration, tissues were incubated with the calcium dye Fluo-4 NW (Thermo Fisher) for 30 min at 37° C. prior to testing. To obtain both calcium transients and contractility readouts consecutively and synchronously, the testing process was performed using both green light channel (λex=490 nm, λem=525 nm) and/or blue channel at 10× or 4× magnification. […] The ratio of peak tissue fluorescence intensity to baseline intensity, dF/F0 was calculated to determine the relative changes in intracellular calcium in the presence of the compound. For the consecutive force and calcium transient readouts, contractile measurements were extracted from the blue channel as described before. […]
# [7] = tested on: atrial tissue derived from Hes3 hESC-CM; experiment: Force and calcium transient measurement in atrial Biowires; assay type: cell-based, human; details: atrial preparations, increasing concentrations
# Procedure: To investigate the contractile effects of various compounds on the tissues, a custom testing chamber was fabricated in a 6-well plate modified with an extraction/injection port connected to a 5 mL syringe, a pair of carbon electrodes (set 1 cm apart) with platinum wire lead attachments and a custom 3D-printed holder for a polystyrene chip with a single microwell. Prior to testing, the tissue was transferred to the custom testing chamber and placed in the environmental chamber on the microscope stage (37° C., 5% CO2), where it was allowed to equilibrate for 30 min in the presence of electrical field stimulation (1 Hz, at ET). […] After 10-15 min, videos in the blue channel were recorded. […] The videos were analyzed using the custom MatLab software, as indicated for the weekly FFR assessments.
# as §2, with “testing.” for “testing. To obtain both calcium transients and contractility readouts consecutively and synchronously, the testing process was performed using both green light channel (λex=490 nm, λem=525 nm) and/or blue channel at 10× or 4× magnification.”
# [8] = tested on: ventricular tissue derived from BJ1D iPSC-CM; experiment: Force and calcium transient measurement in ventricular Biowires; assay type: cell-based, human
# Procedure: To investigate the contractile effects of various compounds on the tissues, a custom testing chamber was fabricated in a 6-well plate modified with an extraction/injection port connected to a 5 mL syringe, a pair of carbon electrodes (set 1 cm apart) with platinum wire lead attachments and a custom 3D-printed holder for a polystyrene chip with a single microwell. Prior to testing, the tissue was transferred to the custom testing chamber and placed in the environmental chamber on the microscope stage (37° C., 5% CO2), where it was allowed to equilibrate for 30 min in the presence of electrical field stimulation (1 Hz, at ET). A bright field video of the tissue was taken before testing to obtain all the necessary measurements for the force calculation. For testing, the voltage was increased to 10% above the ET, and videos were taken of one polymer wire (10× objective). Prior to the test compound injection, media were extracted and injected through the port twice at 10 min intervals to pre-condition the tissue to the testing process. […] For compound testing, ⅓^rd of the media was extracted from the chamber, the compound was added to the extracted media and then injected back into the testing chamber. After 10-15 min, videos in the blue channel were recorded. The procedure was repeated for sequential drug dosages. The videos were analyzed using the custom MatLab software, as indicated for the weekly FFR assessments.
# To investigate the relative changes of intracellular calcium concentration, tissues were incubated with the calcium dye Fluo-4 NW (Thermo Fisher) for 30 min at 37° C. prior to testing. […] The ratio of peak tissue fluorescence intensity to baseline intensity, dF/F0 was calculated to determine the relative changes in intracellular calcium in the presence of the compound. For the consecutive force and calcium transient readouts, contractile measurements were extracted from the blue channel as described before. For the synchronous readouts, the contractile measurements were extracted from the green channel videos using modified version of the ImageJ SpotTracker plugin. […]
# [9] = tested on: atrial region of heteropolar Biowires (Hes3 hESC); experiment: Optical mapping of impulse propagation in atrioventricular Biowires, atrial region; assay type: cell-based, human; details: 1 μM
# Procedure: (§3) To generate atrioventricular tissues, dissociated atrial cardiac cells and cardiac fibroblasts were mixed in a 10:1.5 cell number ratio. Dissociated ventricular cells and cardiac fibroblasts were mixed in a 10:1.5 cell number ratio. The mixed cells were pelleted and resuspended at a concentration of 5.75×10^7 cells/mL in collagen hydrogel. When seeding, cell-hydrogel mixture containing atrial CMs (1 μL) were seeded on one side of the Biowire II well first, followed by mixture containing ventricular CMs (1 μL) seeded on the other side. After seeding, tissues were cultured for 7 days to allow for remodeling and compaction around the POMaC wires.
# (§4) For atrioventricular preparations, electrical stimulation started at 2 Hz on day 7 and the protocol of 1 Hz weekly step-up was used until the frequency reached 6 Hz. If average MCR exceeded 4 Hz after one week of 2 Hz stimulation, or exceeded 5 Hz after one week of 3 Hz stimulation, stimulation frequency could be changed directly from 2 Hz to 4 Hz or 3 Hz to 5 Hz to accelerate the process. […]
# (§5) Tissues were perfused with 5 μM voltage sensitive dye, Di-4-ANEPPS (Invitrogen), in Kreb's Solution at 35-37° C. for 20 min. Dye fluorescence was recorded on an MVX-10 Olympus fluorescence microscope (Olympus Corporation) equipped with a charged coupled device (CCD) (Cascade 128, Photometrics). […]
# [10] = tested on: ventricular portions of heteropolar Biowires (Hes3 hESC); experiment: Optical mapping of impulse propagation in atrioventricular Biowires, ventricular region; assay type: cell-based, human; details: 1 μM, listed as Ranolazine
# Procedure: as §3, §4, §5
# [11] = atrial Biowires, low doses (25 μM)
structure (smiles),measurement,setting,value
COc1ccc(CCN(C)CCCC(C#N)(c2ccc(OC)c(OC)c2)C(C)C)cc1OC (centres unmarked) [verapamil],responses on action potentials,[1],predictable responses
CCN(CC)CC(=O)Nc1c(C)cccc1C [lidocaine],changes in the active forces and beat patterns,[2],inhibits tissue electrical excitability
"Nc1ccncc1 [4AP, 4-aminopyridine]",APD30,[3]; [11],prolonged
same,action potential amplitudes,[3]; [11],increased
same,AP duration,"[3]; atrial tissues, very low concentrations (<50 μM)",prolonged
same,APD,"[1]; ventricular tissues, higher doses",did prolong APD
same,action potential amplitudes and APD30,"[1]; ventricular tissues, low doses (25 μM)",without measurable effects
COc1ccc([C@@H]2Sc3ccccc3N(CCN(C)C)C(=O)[C@@H]2OC(C)=O)cc1 [diltiazem],changes in the active forces and beat patterns,[2],produces negative inotropic effects
CCN(CC)c1ccc2c(-c3ccccc3C(=O)O)c3ccc(=[N+](CC)CC)cc-3oc2c1.[Cl-] [Rhodamine B],fluorescence levels in solution versus PDMS chips,"[4]; 1 μM dye, 37° C., incubation 24 hours and longer",remained higher than in PDMS chips
same,fluorescence in chip after washout,[4]; 1 wk incubation then washout for 2 hours,undetectable
same,levels versus tissue plastic well controls,[4]; after 6 hours,not significantly different
same,fluorescence in chip after washout,[5],remained widespread
CC(C)NCC(O)c1ccc(O)c(O)c1 (centres unmarked) [isoproterenol],changes in the active forces and beat patterns,[2],increases contractility
NCCc1c[nH]c2ccc(O)cc12 [serotonin],Ca2+ transients,[6],increased; also recorded: positive inotropic effect
Cc1[nH]c(=O)c(C#N)cc1-c1ccncc1 [milrinone],changes in the active forces and beat patterns,[2],enhances contractility
Cc1cccc(CCN2CCC(C(=O)c3ccc(NS(C)(=O)=O)cc3)CC2)n1 [E-4031],changes in the active forces and beat patterns,[2],promotes spontaneous irregular beating patterns consistent with arrhythmias
C/C=C(/C)C(=O)O[C@H]1C(C)=C2[C@H]([C@@H]1OC(=O)CCCCCCC)[C@@](C)(OC(C)=O)C[C@H](OC(=O)CCC)[C@@]1(O)[C@H]2OC(=O)[C@@]1(C)O [thapsigargin],force and Ca′ transient amplitudes,[7],dose-dependently decreased
same,potency in ventricular versus atrial preparations,[8]; decrease of force and Ca′ transient amplitudes,higher potency in ventricle
same,time-to-peak and decay rates of both force and Ca2+,"[8]; ventricular Biowires, low pacing rates",prolonged
same,force and Ca′ transient amplitudes,"[8]; ventricular preparations, increasing concentrations",dose-dependently decreased
COc1ccccc1OCC(O)CN1CCN(CC(=O)Nc2c(C)cccc2C)CC1 (centres unmarked) [ranolazine],conduction velocity,[9],significantly slowed down
same,conduction velocity,[9]; listed as Ranolazine,decreased conduction velocity
same,conduction velocity,[10],without affecting
CN(CCOc1ccc(NS(C)(=O)=O)cc1)CCc1ccc(NS(C)(=O)=O)cc1 [dofetilide],responses on action potentials,[1],predictable responses
C[N+](C)(C)CCOC(N)=O [carbachol],APDs (action potential durations),[3]; atrial Biowires,abbreviated APDs; also recorded: shortened atrial APDs only
same,APDs (action potential durations),[1]; ventricular tissues,without affecting these parameters
